From patent publication US20040043942A1, “Vitamin preparations for reducing oxygen consumption during physical efforts” (priority 1996, published 2004)
“And” between values parts separate entries of the source, which are not always exact repeats. Identical values can stand only once.

Legend:
[1] = system: muscle glycogen synthesis; assay: stimulation of glycogen synthesis and of anaerobic glucose breakdown in the muscle (general statement); format: in vivo; details: even if taken together with vitamin B1 and vitamin C
[2] = system: two male individuals, trained for endurance cycling; assay: Example 39 a): ergometer test, medicaments and Preparations applied 15 minutes before the test; format: in vivo, human
Protocol: Analogously to Example 37, the following studies a) to c) were carried out on two male individuals, trained for endurance cycling and kept on a permanently carbohydrate-rich diet; individual A (weighing 67 kg) having a maximum oxygen uptake capacity of 3.3 l and an oxygen transport volume per heart beat of 29 ml (corresponding to 0.6 kJ), and individual B (weighing 74 kg) having a maximum oxygen uptake capacity of 4.5 l and an oxygen transport volume per heart beat of 36 ml (corresponding to 0.75 kJ). The following preparations were used, in which the indicated amounts correspond to one dose unit and which were obtained by dissolving or suspending the components in water and gelling the mixture:
H-Gly-Gly-OH was bought from Novabiochem, Läufelfingen, Switzerland. Insulin was injected subcutaneously, while the other medicaments were ingested alone or together with one of Preparations I-IV.
a) In a first study, insulin or antidiabetic sulphonylurea derivatives were applied, alone or in combination with gelatin and/or Preparation I or II, 15 minutes before the tests. In the tests, individual A was subjected to a workload of 100 W (60 r.p.m.) for 15 minutes (tests A1-A8), and individual B was subjected to a workload of 175 W (60 r.p.m.) for 10 minutes (tests B9-B29).

Compound | stimulation of glycogen synthesis and of the anaerobic glucose breakdown in the muscle (in words) [1] | effect on heat production and oxygen consumption induced by constant physical work loads (in words) ([2]; applied 15 minutes before the test) | Oxygen consumption ([2]; individual B, 175 W for 10 min, 15 min before: 5 I.U. insulin s.c., 2.5 mg glibenclamide alone, with 5 mg gelatin: 100 μg glibenclamide or 10 mg chlorpropamide, Prep. one dose unit)
O=C(CO)[C@@H](O)[C@H](O)[C@H](O)CO [fructose] | ineffective |  | 
OC[C@H]1O[C@@](CO)(O[C@H]2O[C@H](CO)[C@@H](O)[C@H](O)[C@H]2O)[C@@H](O)[C@@H]1O [sucrose] | ineffective |  | 
insulin |  | increase the heat production and oxygen consumption | 32 liter and 33 liter (2×)
